{
  "source": "patent US20260258004A1",
  "about": "“CRYSTALLINE FORMS OF (6S)-5-[4'-FLUORO-2-(TRIFLUOROMETHYL)BIPHENYL-4-YL]-6-METHYL-3,6- DIHYDRO-2H-l,3,4-OXADIAZIN-2-ONE” (Bayer Aktiengesellschaft, priority 2022, published 2026)",
  "assay": "Particle size distribution by laser diffraction (Malvern Panalytical Mastersizer 3000, Fraunhofer)",
  "format": "physicochemical",
  "protocol": "The particle size distribution was measured by laser diffraction using the Malvern Panalytical Mastersizer 3000.\nThe samples are again taken from example 1.6 (probe 1) and example 1.5 (probe 2), the same as used in example 4.\nThe sample to be analyzed is dispersed in 1 drop of Tween 80 the sample is processed according to ISO13320.\nLaser diffraction is an often-used method for determination the particle size of dispersed solid materials. A widened laser beam illuminates a cuvette which contains part of the particles. By diffraction on the particles a characteristic pattern can be mapped on the detector. The resulting diffraction image is the additive overlaying of diffraction images of all particles.\nBesides the mentioned detector two additional detectors are mounted in order to detect diffraction light in forward direction (FA1,9), in wide angle (LA1,2) and in back direction (BS1,2). The turbidity of the sample is measured by an extinction sensor. This is necessary to ensure a low particle concentration which is necessary to avoid wrong results by multiple diffraction of light at several particles.\nThe cuvette used was a wet unit where the suspension is pumped in a closed circuit with a dispersing unit that ensures a separation of single particles by shear forces.\nThe measurement range of the Malvern 3000 covers a particle size from 1 mm (2 mm) down to 20 nm\nThe calculation of the particle size distribution from the diffraction patterns was done on basis of theory of Fraunhofer.\nThis assumption is valid for particle sizes of 10 to 50 μm and above. For smaller particles the light scattering of the particle itself due to optical transparency must be considered which is done in the Mie-theory (not used for our probes). Precondition of the application of the Mie-theory is the knowledge of the refractive and absorption index of the dispersed solids.\nQ3 is the cumulative volume distribution, e.g. D50=Q(50%) indicates 50% of the volume part of the sample is smaller than particle size of 50 μm.\nThe particle size is expressed as an equivalent diameter used in the method recommended by the Malvern Analysis Program and as described in ISO13320.",
  "key": {"[1]": {"details": "without ultrasound (US), listed as Probe 2"}},
  "data": [
    {"smiles": "C[C@@H]1OC(=O)NN=C1c1ccc(-c2ccc(F)cc2)c(C(F)(F)F)c1", "note": "[polymorph C, (6S)-5-[4′-Fluoro-2-(trifluoromethyl)biphenyl-4-yl]-6-methyl-3,6-dihydro-2H-1,3,4-oxadiazin-2-one]", "values": [
      {"measurement": "difference between Q3[50] of untreated sample and sample treated 300 s with ultrasound", "value": "significantly smaller"},
      {"measurement": "D(10)", "setting": "300 s US, listed as Probe2", "value": 14.5, "unit": "μm"},
      {"measurement": "D(50)", "setting": "300 s US, listed as Probe2", "value": 57.3, "unit": "μm"},
      {"measurement": "D(90)", "setting": "300 s US, listed as Probe2", "value": 170, "unit": "μm"},
      {"measurement": "Cumulative volume distribution Q", "setting": "particle size D 0.01 μm, 300 s US", "value": 0, "unit": "%"},
      {"measurement": "Cumulative volume distribution Q", "setting": "particle size D 0.01 μm, without US", "value": 0, "unit": "%"},
      {"measurement": "Cumulative volume distribution Q", "setting": "particle size D 0.0114 μm, 300 s US", "value": 0, "unit": "%"},
      {"measurement": "Cumulative volume distribution Q", "setting": "particle size D 0.0114 μm, without US", "value": 0, "unit": "%"},
      {"measurement": "Cumulative volume distribution Q", "setting": "particle size D 0.0129 μm, 300 s US", "value": 0, "unit": "%"},
      {"measurement": "Cumulative volume distribution Q", "setting": "particle size D 0.0129 μm, without US", "value": 0, "unit": "%"},
      {"measurement": "Cumulative volume distribution Q", "setting": "particle size D 0.0147 μm, 300 s US", "value": 0, "unit": "%"},
      {"measurement": "Cumulative volume distribution Q", "setting": "particle size D 0.0147 μm, without US", "value": 0, "unit": "%"},
      {"measurement": "Cumulative volume distribution Q", "setting": "particle size D 0.0167 μm, 300 s US", "value": 0, "unit": "%"},
      {"measurement": "Cumulative volume distribution Q", "setting": "particle size D 0.0167 μm, without US", "value": 0, "unit": "%"},
      {"measurement": "Cumulative volume distribution Q", "setting": "particle size D 0.0189 μm, 300 s US", "value": 0, "unit": "%"},
      {"measurement": "Cumulative volume distribution Q", "setting": "particle size D 0.0189 μm, without US", "value": 0, "unit": "%"},
      {"measurement": "Cumulative volume distribution Q", "setting": "particle size D 0.0215 μm, 300 s US", "value": 0, "unit": "%"},
      {"measurement": "Cumulative volume distribution Q", "setting": "particle size D 0.0215 μm, without US", "value": 0, "unit": "%"},
      {"measurement": "Cumulative volume distribution Q", "setting": "particle size D 0.0244 μm, 300 s US", "value": 0, "unit": "%"},
      {"measurement": "Cumulative volume distribution Q", "setting": "particle size D 0.0244 μm, without US", "value": 0, "unit": "%"},
      {"measurement": "Cumulative volume distribution Q", "setting": "particle size D 0.0278 μm, 300 s US", "value": 0, "unit": "%"},
      {"measurement": "Cumulative volume distribution Q", "setting": "particle size D 0.0278 μm, without US", "value": 0, "unit": "%"},
      {"measurement": "Cumulative volume distribution Q", "setting": "particle size D 0.0315 μm, 300 s US", "value": 0, "unit": "%"},
      {"measurement": "Cumulative volume distribution Q", "setting": "particle size D 0.0315 μm, without US", "value": 0, "unit": "%"},
      {"measurement": "Cumulative volume distribution Q", "setting": "particle size D 0.0358 μm, 300 s US", "value": 0, "unit": "%"},
      {"measurement": "Cumulative volume distribution Q", "setting": "particle size D 0.0358 μm, without US", "value": 0, "unit": "%"},
      {"measurement": "Cumulative volume distribution Q", "setting": "particle size D 0.0407 μm, 300 s US", "value": 0, "unit": "%"},
      {"measurement": "Cumulative volume distribution Q", "setting": "particle size D 0.0407 μm, without US", "value": 0, "unit": "%"},
      {"measurement": "Cumulative volume distribution Q", "setting": "particle size D 756 μm, 300 s US", "value": 100, "unit": "%"},
      {"measurement": "Cumulative volume distribution Q", "setting": "particle size D 756 μm, without US, listed as Probe 2", "value": 99.65, "unit": "%"},
      {"measurement": "Cumulative volume distribution Q", "setting": "particle size D 859 μm, 300 s US", "value": 100, "unit": "%"},
      {"measurement": "Cumulative volume distribution Q", "setting": "particle size D 859 μm, without US, listed as Probe 2", "value": 99.9, "unit": "%"},
      {"measurement": "Cumulative volume distribution Q", "setting": "particle size D 976 μm, 300 s US", "value": 100, "unit": "%"},
      {"measurement": "Cumulative volume distribution Q", "setting": "particle size D 976 μm, without US, listed as Probe 2", "value": 100, "unit": "%"},
      {"measurement": "Cumulative volume distribution Q", "setting": "particle size D 1110 μm, 300 s US", "value": 100, "unit": "%"},
      {"measurement": "Cumulative volume distribution Q", "setting": "particle size D 1110 μm, without US", "value": 100, "unit": "%"},
      {"measurement": "Cumulative volume distribution Q", "setting": "particle size D 1260 μm, 300 s US", "value": 100, "unit": "%"},
      {"measurement": "Cumulative volume distribution Q", "setting": "particle size D 1260 μm, without US", "value": 100, "unit": "%"},
      {"measurement": "Cumulative volume distribution Q", "setting": "particle size D 1430 μm, 300 s US", "value": 100, "unit": "%"},
      {"measurement": "Cumulative volume distribution Q", "setting": "particle size D 1430 μm, without US", "value": 100, "unit": "%"},
      {"measurement": "Cumulative volume distribution Q", "setting": "particle size D 1630 μm, 300 s US", "value": 100, "unit": "%"},
      {"measurement": "Cumulative volume distribution Q", "setting": "particle size D 1630 μm, without US", "value": 100, "unit": "%"},
      {"measurement": "Cumulative volume distribution Q", "setting": "particle size D 1850 μm, 300 s US", "value": 100, "unit": "%"},
      {"measurement": "Cumulative volume distribution Q", "setting": "particle size D 1850 μm, without US", "value": 100, "unit": "%"},
      {"measurement": "Cumulative volume distribution Q", "setting": "particle size D 2100 μm, 300 s US", "value": 100, "unit": "%"},
      {"measurement": "Cumulative volume distribution Q", "setting": "particle size D 2100 μm, without US", "value": 100, "unit": "%"},
      {"measurement": "Cumulative volume distribution Q", "setting": "particle size D 2390 μm, 300 s US", "value": 100, "unit": "%"},
      {"measurement": "Cumulative volume distribution Q", "setting": "particle size D 2390 μm, without US", "value": 100, "unit": "%"},
      {"measurement": "Cumulative volume distribution Q", "setting": "particle size D 2710 μm, 300 s US", "value": 100, "unit": "%"},
      {"measurement": "Cumulative volume distribution Q", "setting": "particle size D 2710 μm, without US", "value": 100, "unit": "%"},
      {"measurement": "Cumulative volume distribution Q", "setting": "particle size D 3080 μm, 300 s US", "value": 100, "unit": "%"},
      {"measurement": "Cumulative volume distribution Q", "setting": "particle size D 3080 μm, without US", "value": 100, "unit": "%"},
      {"measurement": "Cumulative volume distribution Q", "setting": "particle size D 3500 μm, 300 s US", "value": 100, "unit": "%"},
      {"measurement": "Cumulative volume distribution Q", "setting": "particle size D 3500 μm, without US", "value": 100, "unit": "%"},
      {"measurement": "robustness of crystals", "setting": "ultrasound treatment, compared to polymorph A", "value": "more robust"},
      {"measurement": "D(10)", "setting": "[1]", "value": 69.1, "unit": "μm"},
      {"measurement": "D(50)", "setting": "[1]", "value": 179, "unit": "μm"},
      {"measurement": "D(90)", "setting": "[1]", "value": 380, "unit": "μm"}
    ]}
  ]
}
